Assays:
Assay type in all cases: biochemical
[1] = target: immunoproteasome LPM2/β1i subunit (Homo sapiens, UniProt P28065); assay: Caliper-based proteasome enzymatic activity assay, LMP2; details: human recombinant immunoproteasome 0.3 nM, FAM-labeled peptide substrate 1 μM, rt 2 h
[2] = target: constitutive proteasome β5c unit (Homo sapiens, UniProt P28074); assay: Caliper-based proteasome enzymatic activity assay, β5c; details: human recombinant constitutive proteasome 0.3 nM, FAM-labeled peptide substrate 1 μM, rt 3 h; read-out: β5c subunit IC50
[3] = target: immunoproteasome LMP7/B5i subunit (Homo sapiens, UniProt P28062); assay: Caliper-based proteasome enzymatic activity assay, LMP7; details: human recombinant immunoproteasome 0.3 nM, FAM-labeled peptide substrate 1 μM, rt 3 h; read-out: LMP7 subunit IC50

| IC50 [1] [nM] | IC50 [2] [nM] | IC50 [3] [nM] | Structure (SMILES) |
| --- | --- | --- | --- |
| 46.3 | 8.5 | 12.8 | CC(C)C=C(C#N)C(=O)NCCCC[C@H](NC(=O)c1cnccn1)C(=O)N[C@@H](CC(C)C)B(O)O [Example 2, ((R)-1-((S)-6-(2-cyano-4-methylpent-2-enamido)-2-(pyrazine-2-carboxamido)hexanamido)-3-methylbutyl)boronic acid] |
| 115 | 27.4 | 12.3 | CC(C)C=C(C#N)C(=O)NCCCC[C@H](NC(=O)c1cnccn1)C(=O)N[C@@H](Cc1ccccc1)B(O)O [Example 5, ((R)-1-((S)-6-(2-cyano-4-methylpent-2-enamido)-2-(pyrazine-2-carboxamido)hexanamido)-2-phenylethyl)boronic acid] |
| 82.7 | 38.5 | 12.9 | CC(C)C=C(C#N)C(=O)NCCCC[C@H](NC(=O)c1cccc(O)n1)C(=O)N[C@@H](Cc1ccccc1)B(O)O [Example 6, ((R)-1-((S)-6-(2-cyano-4-methylpent-2-enamido)-2-(6-hydroxypicolinamido)hexanamido)-2-phenylethyl)boronic acid] |
| > 5000 | > 5000 | > 5000 | CC(C)C=C(C#N)C(=O)N1CCCC[C@@H]1CNC(=O)N[C@@H](Cc1ccccc1)B(O)O [Example 33, ((R)-1-(3-(((R)-1-(2-cyano-4-methylpent-2-enoyl)piperidin-2-yl)methyl)ureido)-2-phenylethyl)boronic acid] |
| – | 1150 | 1.9 | C[C@@H]1CN(C(C)(C)C=C(C#N)C(=O)N2C3CCC2(COC(=O)N[C@@H](Cc2ccccc2)B(O)O)CC3)CCO1 [Example 118, ((R)-1-((((7-(2-cyano-4-methyl-4-((R)-2-methylmorpholino)pent-2-enoyl)-7-azabicyclo[2.2.1]heptan-1-yl)methoxy)carbonyl)amino)-2-phenylethyl)boronic acid] |
| – | 685 | 1 | CC1(C)CN(C(C)(C)C=C(C#N)C(=O)N2C3CCC2(COC(=O)N[C@@H](Cc2ccccc2)B(O)O)CC3)CCO1 [Example 119, (R)-(1-((((7-(2-cyano-4-(2,2-dimethylmorpholino)-4-methylpent-2-enoyl)-7-azabicyclo[2.2.1]heptan-1-yl)methoxy)carbonyl)amino)-2-phenylethyl)boronic acid] |
| – | > 5000 | 11.6 | COC(=O)N1CCN(C(C)(C)C=C(C#N)C(=O)N2CCC[C@H](OC(=O)N[C@@H](CC3=CCCC3)B(O)O)C2)CC1 [Example 120, ((R)-1-(((((S)-1-(2-cyano-4-(4-(methoxycarbonyl)piperazin-1-yl)-4-methylpent-2-enoyl)piperidin-3-yl)oxy)carbonyl)amino)-2-(cyclopent-1-en-1-yl)ethyl)boronic acid] |
| – | > 5000 | 7.8 | CC(C)(C=C(C#N)C(=O)N1CCC[C@H](OC(=O)N[C@@H](CC2=CCCC2)B(O)O)C1)N1CCOCC1 [Example 121, ((R)-1-(((((S)-1-(2-cyano-4-methyl-4-morpholinopent-2-enoyl)piperidin-3-yl)oxy)carbonyl)amino)-2-(cyclopent-1 en-1-yl)ethyl)boronic acid] |
| – | 1170 | 2 | C[C@H]1CN(C(C)(C)C=C(C#N)C(=O)N2C3CCC2(COC(=O)N[C@@H](Cc2ccccc2)B(O)O)CC3)CCO1 [Example 122, ((R)-1-((((7-(2-cyano-4-methyl-4-((S)-2-methylmorpholino)pent-2-enoyl)-7-azabicyclo[2.2.1]heptan-1-yl)methoxy)carbonyl)amino)-2-phenylethyl)boronic acid] |
| – | 832 | 0.9 | C[C@H]1CN(C(C)(C)C=C(C#N)C(=O)N2C3CCC2(COC(=O)N[C@@H](Cc2ccccc2)B(O)O)CC3)C[C@H](C)O1 [Example 123, ((R)-1-((((7-(2-cyano-4-((2S,6S)-2,6-dimethylmorpholino)-4-methylpent-2-enoyl)-7-azabicyclo[2.2.1]heptan-1-yl)methoxy)carbonyl)amino)-2-phenylethyl)boronic acid] |
| – | > 5000 | 37.3 | C=CC(=O)N1C[C@@H](F)[C@@H](OC(=O)N[C@@H](Cc2ccccc2)B(O)O)C1 [Example 124, ((R)-1-(((((3S,4R)-1-acryloyl-4-fluoropyrrolidin-3-yl)oxy)carbonyl)amino)-2-phenylethyl)boronic acid] |
| – | 810 | 3.7 | CC(C)(C=C(C#N)C(=O)N1C[C@@H](F)[C@@H](OC(=O)N[C@@H](Cc2ccccc2)B(O)O)C1)N1CCC(F)(F)C1 [Example 125, ((R)-1-(((((3S,4R)-1-(2-cyano-4-(3,3-difluoropyrrolidin-1-yl)-4-methylpent-2-enoyl)-4-fluoropyrrolidin-3-yl)oxy)carbonyl)amino)-2-phenylethyl)boronic acid] |
| – | 967 | 1.3 | C[C@@H]1CN(C(C)(C)C=C(C#N)C(=O)N2C3CCC2(COC(=O)N[C@@H](Cc2ccccc2)B(O)O)CC3)C[C@@H](C)O1 [Example 126, ((R)-1-((((7-(2-cyano-4-((2R,6R)-2,6-dimethylmorpholino)-4-methylpent-2-enoyl)-7-azabicyclo[2.2.1]heptan-1-yl)methoxy)carbonyl)amino)-2-phenylethyl)boronic acid] |
| – | 2420 | 2.4 | C[C@@H]1CN(C(C)(C)C=C(C#N)C(=O)N2CCCC[C@@H](OC(=O)N[C@@H](Cc3ccccc3)B(O)O)C2)C[C@H](C)O1 [Example 127, ((R)-1-(((((R)-1-(2-cyano-4-((2S,6R)-2,6-dimethylmorpholino)-4-methylpent-2-enoyl)azepan-3-yl)oxy)carbonyl)amino)-2-phenylethyl)boronic acid] |
| – | 1350 | 4.7 | C[C@H]1CN(C(C)(C)C=C(C#N)C(=O)N2CCCC[C@@H](OC(=O)N[C@@H](Cc3ccccc3)B(O)O)C2)C[C@H](C)O1 [Example 128, ((R)-1-(((((R)-1-(2-cyano-4-((2S,6S)-2,6-dimethylmorpholino)-4-methylpent-2-enoyl)azepan-3-yl)oxy)carbonyl)amino)-2-phenylethyl)boronic acid] |
| – | 734 | 2.7 | C[C@@H]1CN(C(C)(C)C=C(C#N)C(=O)N2CCCC[C@@H](OC(=O)N[C@@H](Cc3ccccc3)B(O)O)C2)C[C@@H](C)O1 [Example 129] |
| – | 2040 | 2.8 | C[C@H]1CN(C(C)(C)C=C(C#N)C(=O)N2CCCC[C@@H](OC(=O)N[C@@H](Cc3ccccc3)B(O)O)C2)CCO1 [Example 130, ((R)-1-(((((R)-1-(2-cyano-4-methyl-4-((S)-2-methylmorpholino)pent-2-enoyl)azepan-3-yl)oxy)carbonyl)amino)-2-phenylethyl)boronic acid] |
| – | 1480 | 2.6 | C[C@@H]1CN(C(C)(C)C=C(C#N)C(=O)N2CCCC[C@@H](OC(=O)N[C@@H](Cc3ccccc3)B(O)O)C2)CCO1 [Example 131, ((R)-1-(((((R)-1-(2-cyano-4-methyl-4-((R)-2-methylmorpholino)pent-2-enoyl)azepan-3-yl)oxy)carbonyl)amino)-2-phenylethyl)boronic acid] |
| – | 1080 | 0.8 | CC(C)(C=C(C#N)C(=O)N1C2CCC1(COC(=O)N[C@@H](Cc1ccccc1)B(O)O)CC2)N1CC2CC(C1)O2 [Example 132, ((1R)-1-((((7-(4-(6-oxa-3-azabicyclo[3.1.1]heptan-3-yl)-2-cyano-4-methylpent-2-enoyl)-7-azabicyclo[2.2.1]heptan-1-yl)methoxy)carbonyl)amino)-2-phenylethyl)boronic acid] |
| – | 942 | 1.4 | CC(C)(C=C(C#N)C(=O)N1CCCC[C@@H](OC(=O)N[C@@H](Cc2ccccc2)B(O)O)C1)N1CCOC2(CC2)C1 [Example 133, ((R)-1-(((((R)-1-(2-cyano-4-methyl-4-(4-oxa-7-azaspiro[2.5]octan-7-yl)pent-2-enoyl)azepan-3-yl)oxy)carbonyl)amino)-2-phenylethyl)boronic acid] |
| – | 1010 | 1.9 | CC(C)(C=C(C#N)C(=O)N1CCCC[C@@H](OC(=O)N[C@@H](Cc2ccccc2)B(O)O)C1)N1CC2CC(C1)O2 [Example 134, ((1R)-1-(((((3R)-1-(4-(6-oxa-3-azabicyclo[3.1.1]heptan-3-yl)-2-cyano-4-methylpent-2-enoyl)azepan-3-yl)oxy)carbonyl)amino)-2-phenylethyl)boronic acid] |
| – | 3320 | 18.2 | C=CC(=O)N1C[C@@H](F)[C@H](OC(=O)N[C@@H](Cc2ccc(F)cc2)B(O)O)C1 [Example 135, ((R)-1-(((((3R,4R)-1-acryloyl-4-fluoropyrrolidin-3-yl)oxy)carbonyl)amino)-2-(4-fluorophenyl)ethyl)boronic acid] |
| – | 1280 | 1.3 | CC1(C)CN(C(C)(C)C=C(C#N)C(=O)N2CCCC[C@@H](OC(=O)N[C@@H](Cc3ccccc3)B(O)O)C2)CCO1 [Example 136, ((R)-1-(((((R)-1-(2-cyano-4-(2,2-dimethylmorpholino)-4-methylpent-2-enoyl)azepan-3-yl)oxy)carbonyl)amino)-2-phenylethyl)boronic acid] |
| – | 2080 | 1.9 | CC(C)(C=C(C#N)C(=O)N1CCCC[C@@H](OC(=O)N[C@@H](Cc2ccc(F)cc2)B(O)O)C1)N1CCOCC1 [Example 137, ((R)-1-(((((R)-1-(2-cyano-4-methyl-4-morpholinopent-2-enoyl)azepan-3-yl)oxy)carbonyl)amino)-2-(4-fluorophenyl)ethyl)boronic acid] |
| – | > 5000 | 1.2 | CC(C)(C=C(C#N)C(=O)N1CCCC[C@@H](OC(=O)N[C@@H](CC2=CCCC2)B(O)O)C1)N1CCOCC1 [Example 138, ((R)-1-(((((R)-1-(2-cyano-4-methyl-4-morpholinopent-2-enoyl)azepan-3-yl)oxy)carbonyl)amino)-2-(cyclopent-1-en-1-yl)ethyl)boronic acid] |

Reference: patent US12312370B2, “Immunoproteasome inhibitors” (Principia Biopharma Inc., priority 2017, dated 2025)
